Reference: patent US20250243186A1, “PIPERIDINYL INDOLE DERIVATIVES, PREPARATION METHODS AND MEDICINAL USES THEREOF” (HANSOH BIO LLC, priority 2021, published 2025)
Read-outs that look alike come from different tables or passages of the source.

Experiments:
[1] = Ocular pharmacokinetic studies in rats; format: in vivo, brown Norway rats; settings: 2 mpk PO
Protocol: Three-month-old brown Norway rats were administered the Example compound via oral gavage as a suspension in 2 equiv 1 N HCl+30% PEG300+50% (20% Cremophor EL in water). Ocular tissues from both eyes and plasma were collected from rats per time point at 0.25, 0.5, 1, 6, and 24 h after administration. The ocular tissues collected were the retina and the posterior eye cup (RPE/choroid and posterior sclera). The tissues were diluted with phosphate buffered saline containing 10% acetonitrile and homogenized, centrifuged prior to analyses. The concentrations of the test article were measured in plasma and supernatants of ocular homogenates by HPLC-MS/MS in four individual retinas, four individual posterior eye cups, and two individual plasma samples at each time point. Chromatographic separation was carried out on Waters BEH C18 Column (2.1×50 mm, 1.7 μm) column (MAC-MOD Analytical, Chadds Ford, PA), using a gradient elution method with water and acetonitrile, both containing 0.025% formic acid—1 mM NH4OAc. Mass spectrometric measurements in positive electrospray ionization were directed at quantifying the mass transition with [M+H]^+ as the precursor ion on API6500, triple quadruple mass spectrometer (Sciex, Framingham, MA). The relevant pharmacokinetic parameters were estimated using noncompartmental methods using WinNonlin (Enterprise, version 8.2).

[2] = target: T1, Recombinant human Factor B catalytic domain (Homo sapiens (Human), UniProt P00751); experiment: Factor B binding assay by TR-FRET; settings: 10 nM his-tagged Factor B catalytic domain, 100 nM tracer, 1 h
[3] = target: T1, Recombinant human Factor B catalytic domain; experiment: biochemical
[4] = target: T1, Recombinant human Factor B catalytic domain; experiment: Target residence time of Factor B inhibitors by surface plasmon resonance (SPR); settings: for Residence time: 1/koff; for t1/2: binding half-life ln2/koff
[5] = tested on: AP complement activation; experiment: In vivo assessment of mouse AP complement functional activity (LPS-induced plasma C3b/iC3b/C3c ELISA); parameters: species or system C57BL/6 mice; settings: at 20 h, 20 mg/kg oral
Protocol: Female C57BL/6 mice were administered with Example 57 formulation (20 mg/kg in 0.5% (w/v) methyl cellulose, 0.5% (v/v) Tween 80) by oral gavage 20 h before the end of study. To activate complement pathway, lipopolysaccharide (LPS) from Salmonella typhimurium (Sigma) was injected i.p. (2.5 mg/kg) 7.5 h prior to the end of the study. Control mice were given i.p. injection of saline solution and dosed with vehicle by oral gavage. Plasma samples were collected from mice at the end of the study. AP complement activation was assessed by measuring plasma C3 cleavage products C3b/iC3b/C3c with ELISA using rat anti-mouse C3b/iC3b/C3c monoclonal antibody (clone 2/11, Hycult biotech, 0.1ug/well) and goat anti-Rat IgG (whole molecule)-Peroxidase (Sigma) diluted in TBST (TBS/0.05% Tween20).

[6] = tested on: alternative complement pathway (AP); experiment: Ex vivo assessment of plasma PD inhibition (AP MAC deposition ELISA in rat serum); parameters: species or system Sprague Dawley rats; settings: 2 mg/kg oral
[7] = read-out: Factor B TR-FRET IC50

T1 sequence (P00751 470-764): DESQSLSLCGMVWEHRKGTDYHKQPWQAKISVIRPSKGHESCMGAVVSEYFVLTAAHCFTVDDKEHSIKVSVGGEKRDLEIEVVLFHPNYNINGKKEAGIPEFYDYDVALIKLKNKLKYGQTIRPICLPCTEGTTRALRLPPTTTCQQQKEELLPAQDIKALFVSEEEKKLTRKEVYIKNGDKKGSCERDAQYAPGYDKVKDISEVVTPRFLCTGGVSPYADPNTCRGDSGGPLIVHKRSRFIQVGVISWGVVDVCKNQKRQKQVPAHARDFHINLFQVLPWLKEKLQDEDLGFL

Row | SMILES | IC50 ([2]; Factor B TR-FRET IC50 (nM)) [nM] | t1/2 [4] [h] | IC50 [2, 7] [nM] | further results
1 | COc1cc(C)c2[nH]ccc2c1CN1CCC2(CC1c1ccc(C(=O)O)cc1)CC2(F)F (single isomer, unassigned) [8 (Isomer 1), 4-(1,1-difluoro-6-((5-methoxy-7-methyl-1H-indol-4-yl)methyl)-6-azaspiro[2.5]octan-5-yl)benzoic acid] | 7 | – | – | AUC(0-t) ([1]; Brown Norway, rat, 2 mg/kg, plasma, read-out: Plasma AUC0-last): 10800 nM·h; AUC(0-t) ([1]; Brown Norway, rat, 2 mg/kg, retina, read-out: Retina AUC0-last): 2230 nM·h; half-life ([1]; Brown Norway, rat, in vivo, 2 mg/kg, read-out: T½ (converted)): 6.4 h
2 | COc1cc(C)c2[nH]ccc2c1CN1CCC2(CC1c1ccc(C(=O)O)cc1)CC2F (single isomer, unassigned) [27 (Isomer 1), 4-(1-fluoro-6-((5-methoxy-7-methyl-1H-indol-4-yl)methyl)-6-azaspiro[2.5]octan-5-yl)benzoic acid] | 5 | 0.0367 | – | Kd [3]: 6.25 nM; Residence time [4]: 191.4 s
3 | COc1cc(C)c2[nH]ccc2c1CN1CCC2(CC1c1ccc(C(=O)O)cc1)CC2F (single isomer, unassigned) [27 (Isomer 2), 4-(1-fluoro-6-((5-methoxy-7-methyl-1H-indol-4-yl)methyl)-6-azaspiro[2.5]octan-5-yl)benzoic acid] | 5.3 | 0.0592 | – | Kd [3]: 4.25 nM; Residence time [4]: 308.9 s
4 | COc1cc(C)c2[nH]ccc2c1CN1CC2CC3(CC3)CC2C1c1ccc(C(=O)O)cc1 (single isomer, unassigned) [29 (Isomer 1), 4-(2-((5-methoxy-7-methyl-1H-indol-4-yl)methyl)hexahydro-1H-spiro[cyclopenta[c]pyrrole-5,1′-cyclopropan]-1-yl)benzoic acid] | 7.5 | 0.0453 | – | Kd [3]: 7.03 nM; Residence time [4]: 236.4 s
5 | COc1cc(C)c2[nH]ccc2c1CN1CCC2(C[C@H]1c1ccc(-c3noc(=O)[nH]3)cc1)CC(F)(F)C2 (single isomer, unassigned) [47 (Isomer 1)] | < 2 | 0.795 | – | Kd [3]: 0.53 nM; Residence time [4]: 4130 s
6 | Cc1cc(C2CC2)c(CN2CCC3(C[C@H]2c2ccc(C(=O)O)cc2)CC(F)(F)C3)c2cc[nH]c12 [Example 53] | – | 1.214 | < 2 | –
7 | COc1cc(C)c2[nH]ccc2c1CN1CCC2(C[C@H]1c1ccc(C(=O)O)cc1C)CC(F)(F)C2 [Example 57] | – | 1.188 | < 2 | inhibition in mouse in-vivo PD assay [5]: sustained inhibition; T½ [1]: 22.2 h; Plasma AUC0-last (nM · h) ([1]; plasma): 12,668 nM · h; Retina AUC0-last ([1]; retina): 796.4 nM·h; inhibition in rat ex-vivo PD assay ([6]; at 24 h): sustained inhibition
8 | CCc1cc(C)c2[nH]ccc2c1CN1CCC2(C[C@H]1c1ccc(C(=O)O)cc1)CC(F)(F)C2 [Example 80] | – | – | < 2 | –
9 | C=C(F)c1cc(C)c2[nH]ccc2c1CN1CCC2(C[C@H]1c1ccc(C(=O)O)cc1)CC(F)(F)C2 [Example 81] | – | – | 47.3 | –
10 | [2H]C([2H])([2H])Oc1cc(C)c2[nH]ccc2c1CN1CCC2(C[C@H]1c1ccc(C(=O)O)cc1)CC(F)(F)C2 [Example 82] | – | – | < 2 | –
11 | Cc1cc(C(=O)O)ccc1[C@@H]1CC2(CCN1Cc1c(C3CC3)cc(C)c3[nH]ccc13)CC(F)(F)C2 [Example 83] | – | – | < 2 | –
12 | COc1cc(C)c2[nH]ccc2c1CN1CCC2(C[C@H]1c1ccc3c(C(=O)O)cccc3c1)CC(F)(F)C2 [Example 84] | – | – | 3.1 | –
13 | COc1cc(C)c2[nH]ccc2c1CN1CCC2(C[C@H]1c1ccc(C(=O)O)c3ccccc13)CC(F)(F)C2 [Example 85] | – | – | < 2 | –
14 | CCOc1cc(C)c2[nH]ccc2c1CN1CCC2(C[C@H]1c1ccc(C(=O)O)cc1)CC(F)(F)C2 [Example 86] | – | – | 2.1 | –
15 | CCO[C@H]1CCN(Cc2c(OC)cc(C)c3[nH]ccc23)[C@H](c2ccc(C(=O)O)cc2)C1 [Iptacopan, reference compound] | – | – | – | inhibition at 2 mg/kg ([6]; Rattus norvegicus, rats, 24 h post dose, 50% serum, read-out: Serum PD inhibition (%) at 24 h (2 mpk)): -3%
